Measured values as given in ChEMBL document CHEMBL1201862, “PubChem BioAssay data set” (2004).
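Interpolation was linear, between the two tested concentrations surrounding the appropriate level; five concentrations were tested over 48 hours in 96-well plates. GI50 is the concentration that inhibits growth by half.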 The source made the active and inactive calls. Cut-off read from the data, not from the text of the source: active = GI50 up to about 1.1 µM and inactive = higher.

How the values were obtained:
Test in all cases: DTP human tumour cell line panel, 48 h
[1] = test system: CAKI-1
[2] = test system: RXF 393
[3] = test system: SF-268
[4] = test system: UACC-62
[5] = test system: HCT-15
[6] = test system: EKVX
[7] = test system: SK-OV-3
[8] = test system: HT-29
[9] = test system: HOP-62
[10] = test system: HCC 2998
[11] = test system: OVCAR-5
[12] = test system: HL-60
[13] = test system: MDA-MB-231
[14] = test system: SR
[15] = test system: SW-620
[16] = test system: DU-145
[17] = test system: SK-MEL-2
[18] = test system: UO-31
[19] = test system: MCF7
[20] = test system: M14
[21] = test system: 786-0
[22] = test system: SK-MEL-5
[23] = test system: TK-10
[24] = test system: Hs-578T
[25] = test system: A549
[26] = test system: ACHN
[27] = test system: NCI-H460
[28] = test system: MOLT-4
[29] = test system: IGROV-1
[30] = test system: PC-3
[31] = test system: NCI/ADR-RES
[32] = test system: NCI-H23
[33] = test system: UACC-257
[34] = test system: MDA-N
[35] = test system: LOX IMVI
[36] = test system: SN12C
[37] = test system: COLO 205
[38] = test system: BT-549
[39] = test system: SK-MEL-28
[40] = test system: K562
[41] = test system: NCI-H226
[42] = test system: RPMI-8226
[43] = test system: HOP-92
[44] = test system: NCI-H522
[45] = test system: SF-295
[46] = test system: KM12
[47] = test system: T47D
[48] = test system: HCT-116
[49] = test system: SNB-19
[50] = test system: MDA-MB-435
[51] = test system: OVCAR-4
[52] = test system: CCRF-CEM
[53] = test system: OVCAR-3
[54] = test system: U-251
[55] = test system: SF-539
[56] = test system: OVCAR-8

Compound: CC(=O)c1sc2n(C)c(=O)c3ccccc3[n+]2c1C
- GI50 [1]: > 100 µM (inactive)
- GI50 [2]: > 100 µM (inactive)
- GI50 [3]: > 100 µM (inactive)
- GI50 [4]: > 100 µM (inactive)
- GI50 [5]: > 100 µM
- GI50 [6]: > 100 µM (inactive)
- GI50 [7]: > 100 µM (inactive)
- GI50 [8]: > 100 µM (inactive)
- GI50 [9]: > 100 µM (inactive)
- GI50 [10]: > 100 µM (inactive)
- GI50 [11]: > 100 µM (inactive)
- GI50 [12]: > 100 µM (inactive)
- GI50 [13]: > 100 µM (inactive)
- GI50 [14]: > 100 µM (inactive)
- GI50 [15]: > 100 µM (inactive)
- GI50 [16]: > 100 µM (inactive)
- GI50 [17]: > 100 µM (inactive)
- GI50 [18]: > 100 µM (inactive)
- GI50 [19]: > 100 µM (inactive)
- GI50 [20]: > 100 µM (inactive)
- GI50 [21]: > 100 µM (inactive)
- GI50 [22]: > 100 µM (inactive)
- GI50 [23]: > 100 µM (inactive)
- GI50 [24]: > 100 µM (inactive)
- GI50 [25]: > 100 µM (inactive)
- GI50 [26]: > 100 µM (inactive)
- GI50 [27]: > 100 µM (inactive)
- GI50 [28]: > 100 µM (inactive)
- GI50 [29]: > 100 µM (inactive)
- GI50 [30]: > 100 µM (inactive)
- GI50 [31]: > 100 µM (inactive)
- GI50 [32]: > 100 µM (inactive)
- GI50 [33]: > 100 µM (inactive)
- GI50 [34]: > 100 µM (inactive)
- GI50 [35]: > 100 µM (inactive)
- GI50 [36]: > 100 µM (inactive)
- GI50 [37]: > 100 µM (inactive)
- GI50 [38]: > 100 µM (inactive)
- GI50 [39]: > 100 µM (inactive)
- GI50 [40]: > 100 µM (inactive)
- GI50 [41]: > 100 µM (inactive)
- GI50 [42]: > 100 µM (inactive)
- GI50 [43]: 46.5 µM (inactive)
- GI50 [44]: > 100 µM (inactive)
- GI50 [45]: > 100 µM (inactive)
- GI50 [46]: > 100 µM (inactive)
- GI50 [47]: > 100 µM (inactive)
- GI50 [48]: > 100 µM (inactive)
- GI50 [49]: > 100 µM (inactive)
- GI50 [50]: > 100 µM (inactive)
- GI50 [51]: > 100 µM (inactive)
- GI50 [52]: > 100 µM (inactive)
- GI50 [53]: > 100 µM (inactive)
- GI50 [54]: > 100 µM (inactive)
- GI50 [55]: > 100 µM (inactive)
- GI50 [56]: > 100 µM (inactive)
